Test results: patent publication US6838414B2, “Substituted aryl sulphonyl(thio)ureas used as herbicides” (Bayer Aktiengesellschaft, priority 1996, dated 2005)

Key:
weeds [1] = test: Pre-emergence test (overall statement); type: in vivo; conditions: application rates between 30 g and 125 g of a.i. per hectare
Experimental: (§1) To produce a suitable preparation of active compound, 1 part by weight of active compound is mixed with the stated amount of solvent, the stated amount of emulsifier is added and the concentrate is diluted with water to the desired concentration.
(§2) Seeds of the test plants are sown in normal soil. After about 24 hours, the soil is sprayed with the preparation of the active compound. Advantageously, the amount of water per unit area is kept constant. The active compound concentration in the preparation is not important, only the active compound application rate per unit area is critical.
(§3) After three weeks, the degree of damage to the plants is rated in % damage in comparison with the development of the untreated control.
(§4) The figures denote: • 0%=no effect (like untreated control) • 100%=total destruction

Alopecurus [2] = test: Post-emergence test/greenhouse; type: in vivo; conditions: rated after three weeks vs untreated control
Experimental: as §1
(§5) Test plants which have a height of 5-15 cm are sprayed with the preparation of the active compound in such a way as to apply the particular amounts of active compound desired per unit area. The concentration of the spray liquor is chosen so that the amounts of active compound desired in each case are applied in 1000 l of water/ha.
as §3, §4

Abutilon = test: Post-emergence test/greenhouse; type: in vivo; conditions: rated after three weeks vs untreated control
Experimental: as §1, §5, §3, §4

Echinochloa = test: Post-emergence test/greenhouse; type: in vivo; conditions: rated after three weeks vs untreated control
Experimental: as §1, §5, §3, §4

weeds [3] = test: Post-emergence test/greenhouse; type: in vivo
Experimental: as §1, §5, §3, §4

Matricaria = test: Post-emergence test/greenhouse; type: in vivo; conditions: rated after three weeks vs untreated control
Experimental: as §1, §5, §3, §4

Amaranthus = test: Pre-emergence test/greenhouse; type: in vivo; conditions: after three weeks
Experimental: as §1, §2, §3, §4

Chenopodium = test: Pre-emergence test/greenhouse; type: in vivo; conditions: after three weeks
Experimental: as §1, §2, §3, §4

Sorghum = test: Pre-emergence test/greenhouse; type: in vivo; conditions: after three weeks
Experimental: as §1, §2, §3, §4

Alopecurus [4] = test: Pre-emergence test/greenhouse; type: in vivo; conditions: after three weeks
Experimental: as §1, §2, §3, §4

Stellaria = test: Pre-emergence test/greenhouse; type: in vivo; conditions: after three weeks
Experimental: as §1, §2, §3, §4

Lolium = test: Pre-emergence test/greenhouse; type: in vivo; conditions: after three weeks
Experimental: as §1, §2, §3, §4

[5] = application rate 30 g of ai./ha
[6] = application rate 60 g of ai./ha

| SMILES | activity against weeds (weeds [1]) | degree of damage to the plants, Alopecurus (Alopecurus [2]; [5]) [%] | degree of damage to the plants, Abutilon (Abutilon; [5]) [%] | degree of damage to the plants, Echinochloa (Echinochloa; [5]) [%] | activity against weeds (weeds [3]) | degree of damage to the plants, Matricaria (Matricaria; [5]) [%] | Amaranthus, % damage (Amaranthus; 30 g of ai./ha) [%] | Chenopodium, % damage (Chenopodium; 30 g of ai./ha) [%] | Sorghum, % damage (Sorghum; 30 g of ai./ha) [%] | Alopecurus, % damage (Alopecurus [4]; 30 g of ai./ha) [%] | degree of damage to the plants, Alopecurus (Alopecurus [2]; [6]) [%] | degree of damage to the plants, Abutilon (Abutilon; [6]) [%] | degree of damage to the plants, Echinochloa (Echinochloa; [6]) [%] | degree of damage to the plants, Matricaria (Matricaria; [6]) [%] | Amaranthus, % damage (Amaranthus; 60 g of ai./ha) [%] | Chenopodium, % damage (Chenopodium; 60 g of ai./ha) [%] | Sorghum, % damage (Sorghum; 60 g of ai./ha) [%] | Alopecurus, % damage (Alopecurus [4]; 60 g of ai./ha) [%] | Steltaria, % damage (Stellaria; 60 g of ai./ha) [%] | Lolium, % damage (Lolium; 60 g of ai./ha) [%] | also measured |
| --- | --- | --- | --- | --- | --- | --- | --- | --- | --- | --- | --- | --- | --- | --- | --- | --- | --- | --- | --- | --- | --- |
| COc1nc(NC(=O)NS(=O)(=O)c2c(C)cccc2OC)nc(OC)n1 [Example 2, N-(4,6-dimethoxy-1,3,5-triazin-2-yl)-N′-(2-methoxy-6-methyl-phenylsulphonyl)-urea] | very strong activity against weeds | 90 | 95 | 90 | very strong activity against weeds | 100 | 100 | 100 | 100 | 100 | – | – | – | – | – | – | – | – | – | – | Steltaria, % damage (Stellaria; 30 g of ai./ha): 100%; Lolium, % damage (Lolium; 30 g of ai./ha): 100%; melting point: 163 °C |
| CCOc1cccc(C)c1S(=O)(=O)NC(=O)Nc1nc(OC)cc(OC)n1 [Example 3, N-(4,6-dimethoxy-pyrimidin-2-yl)-N′-(2-ethoxy-6-methyl-phenylsulphonyl)-urea] | very strong activity against weeds | – | – | – | very strong activity against weeds | – | – | – | – | – | 90 | 100 | 80 | 95 | 80 | 95 | 80 | 95 | 95 | 60 | melting point: 184 °C |
| CCCOc1cccc(C(F)(F)F)c1S(=O)(=O)NC(=O)Nc1nc(C)nc(OC)n1 [Example 9] | very strong activity against weeds | – | – | – | very strong activity against weeds | – | 100 | 100 | 90 | 100 | – | – | – | – | – | – | – | – | – | – | degree of damage to the plants, Alopecurus (Alopecurus [2]; application rate 8 g of ai./ha): 90%; degree of damage to the plants, Abutilon (Abutilon; application rate 8 g of ai./ha): 100%; degree of damage to the plants, Echinochloa (Echinochloa; application rate 8 g of ai./ha): 80%; degree of damage to the plants, Matricaria (Matricaria; application rate 8 g of ai./ha): 95%; Steltaria, % damage (Stellaria; 30 g of ai./ha): 100%; Lolium, % damage (Lolium; 30 g of ai./ha): 100% |
| COc1cc(C)nc(NC(=O)NS(=O)(=O)c2c(C)cccc2OC)n1 [Example 43] | very strong activity against weeds | 60 | 100 | 95 | very strong activity against weeds | 100 | 100 | 100 | 100 | 100 | – | – | – | – | – | – | – | – | – | – | Steltaria, % damage (Stellaria; 30 g of ai./ha): 100%; Lolium, % damage (Lolium; 30 g of ai./ha): 100% |
| COc1nc(C)nc(NC(=O)NS(=O)(=O)c2c(OC)cccc2C(F)(F)F)n1 [Example 5] | very strong activity against weeds | 80 | 100 | 100 | very strong activity against weeds | 100 | – | – | – | – | – | – | – | – | 100 | 100 | 100 | 100 | 100 | 100 | – |
| CCOc1cccc(C)c1S(=O)(=O)NC(=O)Nc1nc(C)cc(OC)n1 [Example 27] | very strong activity against weeds | – | – | – | very strong activity against weeds | – | – | – | – | – | 95 | 100 | 95 | 90 | 100 | 100 | 100 | 100 | 100 | 100 | – |
| CCOc1cccc(C(F)(F)F)c1S(=O)(=O)NC(=O)Nc1nc(C)nc(OC)n1 [Example 4] | very strong activity against weeds | 90 | 100 | 90 | very strong activity against weeds | 100 | – | – | – | – | – | – | – | – | 100 | 100 | 100 | 100 | 95 | 100 | – |
| COc1nc(C)nc(NC(=O)NS(=O)(=O)c2c(C)cccc2OC(F)F)n1 [Example 66] | very strong activity against weeds | – | – | – | very strong activity against weeds | – | – | – | – | – | 80 | 100 | 80 | 100 | 95 | 95 | 95 | 95 | 95 | 95 | – |
| COc1cc(Cl)nc(NC(=O)NS(=O)(=O)c2c(OC)cccc2C(F)(F)F)n1 [Example 15] | very strong activity against weeds | – | – | – | very strong activity against weeds | – | – | – | – | – | 70 | 95 | 90 | 100 | 95 | 100 | 95 | 100 | 95 | 95 | – |
| COc1cccc(C)c1S(=O)(=O)NC(=O)Nc1nc(C)cc(C)n1 [Example 41] | very strong activity against weeds | 60 | 90 | 95 | very strong activity against weeds | 70 | 60 | 100 | 100 | 95 | – | – | – | – | – | – | – | – | – | – | Steltaria, % damage (Stellaria; 30 g of ai./ha): 80%; Lolium, % damage (Lolium; 30 g of ai./ha): 100% |
| COc1nc(NC(=O)NS(=O)(=O)c2c(OC)cccc2C(F)(F)F)nc(OC)n1 [Example 6] | very strong activity against weeds | 60 | 90 | 100 | very strong activity against weeds | 100 | – | – | – | – | – | – | – | – | 100 | 100 | 100 | 100 | 100 | 100 | – |
| COc1cccc(C(F)(F)F)c1S(=O)(=O)NC(=O)Nc1nc(C)cc(C)n1 [Example 1, N-(4,6-dimethyl-pyrimidin-2-yl)-N′-(2-methoxy-6-trifluoromethyl-phenylsulphonyl)-urea] | very strong activity against weeds | – | – | – | – | – | – | – | – | – | – | – | – | – | 100 | 100 | 100 | 100 | 100 | 100 | melting point: 190 °C |
| CCCOc1cccc(C)c1S(=O)(=O)NC(=O)Nc1nc(OC)nc(OC)n1 [Example 48] | very strong activity against weeds | – | – | – | very strong activity against weeds | – | – | – | – | – | 95 | 100 | 70 | 90 | 100 | 100 | 100 | 100 | 100 | 100 | – |
